“Also recorded” adds a separate entry of the source. Read-outs that look alike come from different tables or passages of the source.
How the values were obtained:
CHO cells [1] = assay: Interaction of PD20 with CHO cells at pH 7.4 and pH 5.5 (fluorescence microscopy); format: cell-based, Chinese hamster; conditions: 30 minute incubation at 37° C.
Experimental: A 2 mL suspension of CHO cells (10^5 cells/mL) was seeded into WilCo dishes (Intracel, Royston, UK) and incubated overnight (24 hours) at 37° C. in a humidity controlled incubator in an air atmosphere supplemented with 5% CO2.
The CHO cells were then washed three times with 100 μl of D-PBS (Sigma, Poole, Dorset, UK) to remove excess serum. 2 mL of PD20 (1 mg/mL) in D-PBS (Sigma, Poole, Dorset, UK) at pH 7.4 or titrated to pH 5.5 with 0.1 M HCl was then added to the Willco dishes.
The dishes were incubated for 30 minutes, the PD20 removed (by aspiration) and the cells washed three times with 2 mL D-PBS (Sigma, Poole, Dorset, UK) adjusted to pH 7.4 or pH 5.5 with 1.0 M HCl.
The CHO cells were then re-suspended in 2 mL of D-PBS at pH 7.4 or titrated to pH 5.5 with 0.1 M HCl and fluorescent photomicrogram images obtained on a Laser Scanning Confocal Zeiss LSM410 microscope (λex 535 nm, λem 570 nm) with a ×20 magnification lens (Amersham Biosciences, Cardiff, UK).
Phase contrast images of the CHO cells were obtained on the same microscope in non-fluorescence mode.

CHO cells [2] = assay: Interaction of PD20 with CHO cells at pH 7.4, 6.0 or 5.0 (confocal time course); format: cell-based, Chinese hamster
Experimental: CHO cells (80,000/mL) were seeded into WilCo dishes and incubated overnight (24 hours) at 37° C. in a humidity controlled incubator in an air atmosphere supplemented with 5% CO2.
The CHO cells were then washed three times with 2 mL D-PBS (Sigma, Poole, Dorset, UK) to remove excess serum and incubated with 2 mL PD20 (1 mg/mL) in serum-free medium (F12 Nutrient Ham Mixture, Sigma, Poole, Dorset, UK) titrated to pH 7.4, 6.0, or 5.0 with 0.1 M HCl.
The CHO cells were then incubated for 10 minutes and washed three times with 2 mL D PBS (pH 7.4, 6.0, or 5.0). 2 mL of fresh D-PBS at the required pH (pH 7.4, 6.0, or 5.0) was added to each dish and the CHO cells were then imaged on a Zeiss LSM410 confocal microscope (Amersham Biosciences, Cardiff, UK) for 1 hour at 10 minute intervals (to reduce photobleaching and cell exposure to the laser). The cells were maintained at 37° C. on an integral heater stage.
The confocal microscope images were quantified using Metamorph™ software to give the fluorescence intensity.

HepG2 cells [3] = assay: Co-localisation of PD20 with FITC-Alexa Fluor 488; format: cell-based, Human; conditions: 1 mg/mL, 15 minutes, pH 7.4
Experimental: HepG2 cells (80,000/mL) were seeded into WilCo dishes, and incubated overnight (24 hours) at 37° C. in a humidity controlled incubator in an air atmosphere supplemented with 5% CO2.
The HepG2 cells were then incubated for a period of 15 minutes with a mixture of PD20 at a concentration of 1 mg/mL and the endosomal labelling fluorophore FITC-Alexa Fluor 488 (Cambridge Biosciences, Cambridge, UK) at a concentration of 50 μg/mL in serum free medium (Dulbecco's Modified Eagle Medium, DMEM) appropriate for HepG2 cells (total volume 2 mL) at pH 7.4.
The supernatant was then removed and the cells washed three times with 2 mL DMEM. 2 mL of fresh D-PBS was added to each dish and the CHO cells were then imaged on a Zeiss LSM410 confocal microscope (λex 535 nm, λem 570 nm for PD20, λex 495 nm, λem 518 nm for FITC Alexa Fluor 488) (Amersham Biosciences, Cardiff, UK).

CHO cells [4] = assay: Uptake and internalisation of PD30 (LSCM); format: cell-based, Chinese hamster; conditions: pH 7.4, 37° C., 30 minutes; PD30 1 mg/mL, free dyes 0.01 mg/mL
Experimental: (§1) CHO or HepG2 cells (80,000 cells/mL) were seeded into Willco dishes and incubated overnight (24 hours) at 37° C. in a humidity controlled incubator in an air atmosphere supplemented with 5% CO2.
(§2) The cells were then washed three times with 2 mL D-PBS (Sigma, Poole, Dorset, UK) to remove excess serum. 2 mL of PD30 at a concentration of 1 mg/mL in D-PBS (pH 7.4) was added, and the cells incubated for 10 minutes at 37° C. in a humidity controlled incubator in an air atmosphere supplemented with 5% CO2.
(§3) Controls were prepared similarly, by the addition of 2 mL of bis-amino Cy3 at a concentration of 0.01 mg/mL in D-PBS (pH 7.4), or 2 mL of bis-sulphonic acid Cy3 at a concentration of 0.01 mg/mL in D-PBS (pH 7.4), followed by incubation for 10 minutes at 37° C. in a humidity controlled incubator in an air atmosphere supplemented with 5% CO2.
(§4) Laser Scanning Confocal Microscopy (LSCM) images were then obtained at 10 minute intervals, using an Olympus FV300 LSCM (Department of Chemical Engineering, University of Cambridge, Cambridge, Cambridgeshire, UK). The cells remained on the microscope for the duration of the imaging experiments.

HepG2 cells [5] = assay: Uptake and internalisation of PD30 (LSCM); format: cell-based, Human; conditions: pH 7.4, 37° C., 30 minutes; PD30 1 mg/mL, bis-amino Cy3 0.01 mg/mL
Experimental: as §1, §2, §3, §4

[6] = Spectrophotometric titration with HCl; format: physicochemical; conditions: read-out: pKa of the bis-amino groups
Experimental: Aqueous solutions of polymers were titrated by with 1.0 N HCl delivered to an Aminco-SDP-125 spectrofluorimeter, equipped with a flow through cell, from a titration vessel, via a peristaltic pump.
Spectrophotometric titrations were carried out for a mixture of poly(L-lysine iso-phthalamide) at a concentration of 0.5 g/l and free bis-amino Cy3 at a fluorophore concentration of 0.26 mM (0.1 g/l), which yields the maximum emission intensity for this polymer/fluorophore combination.

MCF7 cells [7] = assay: Polymer-conjugated doxorubicin uptake (flow cytometry); format: cell-based, human; conditions: 2 mM doxorubicin or equivalent; for uptake into cells: serum-free medium
Experimental: (§5) Control solutions, containing polymer (with no doxorubicin) and medium alone were also prepared. […] Samples (1 mL) of each test solution were placed in Eppindorf centrifuge tubes and placed in an incubator at 37° C. under a 5% CO2 atmosphere. 2×10^6 cells of each type were suspended in 300 μL of cell culture media (10% foetal calf serum, 2 mM L-Glutamine, 100 U/mL penicillin and 100 μg/mL streptomycin) and incubated at 37° C. under a 5% CO2 atmosphere. The study was initiated by adding 10 μL of cells to each test sample. After selected exposure times, the cells were pelleted by centrifuge and placed on ice. The cells were then re-suspended in phosphate buffer and analysed using a flow cytometer gated to count […] (approximately 10% of the total cell count). A histogram of fluorescence intensity vs. number of events, and the median value of fluorescence intensity, was recorded for each sample. Background fluorescence for cells alone, or for cells with DMSO, was subtracted from the corresponding test samples.

MCF7/MXR cells [8] = assay: as above; format: cell-based, human; conditions: 2 mM doxorubicin or equivalent; for uptake into cells: serum-free medium
Experimental: as §5

[9] = at 25° C.; cited from earlier work
MCF7 cells [10] = conditions: 5 days
Experimental: (§6) Subsequently, a standard MTT (3-(4,5-dimethylthiazol-2-yl)-2,5-diphenyl-2H-tetrazolium bromide) assay was performed in order to assess cell viability.
(§7) The total DMSO concentration was adjusted to 1% by volume, and the cells incubated at 37° C. under a 5% CO2 atmosphere for 5 days. […] Subsequently, a standard MTT assay was performed in order to assess cell viability.

MCF7/MXR cells [11] = conditions: 5 days
Experimental: as §6, §7

| Compound | subcellular localisation after uptake (CHO cells [4]) | nuclear staining (HepG2 cells [5]) | subcellular localisation after uptake (HepG2 cells [5]) | effect of 1% DMSO on uptake (MCF7 cells [7]) | uptake into cells (MCF7 cells [7]) | effect of 1% DMSO on uptake (MCF7/MXR cells [8]) | uptake into cells (MCF7/MXR cells [8]) | also measured |
| --- | --- | --- | --- | --- | --- | --- | --- | --- |
| Poly(L-lysine-co-Cy3-iso-phthalamide) [PD20] | – | – | – | – | – | – | – | adsorption onto the extracellular membrane of CHO cells (CHO cells [1]; pH 5.5, 1 mg/mL): extensive adsorption; adsorption onto the membrane of CHO cells (CHO cells [1]; pH 7.4, 1 mg/mL): weakly adsorbed; initial relative fluorescence intensity of cells at pH 6.0 and pH 5.0 versus pH 7.4 (CHO cells [2]; 1 mg/mL): more than three times larger; time at which fluorescence intensity peaked (CHO cells [2]; pH 5.0, 1 mg/mL): 20 min; time at which fluorescence intensity peaked (CHO cells [2]; pH 6.0, 1 mg/mL): 30 min; relative fluorescence intensity of the cells with time (CHO cells [2]; pH 7.4, 1 mg/mL): gradual increase; co-localisation with endosomal stain FITC-Alexa Fluor 488 (HepG2 cells [3]): uptake of the PD20 into the endosomal compartment |
| CCN1/C(=C/C=C/C2=[N+](CC)c3ccc(CN)cc3C2(C)C)C(C)(C)c2cc(CN)ccc21 [bis-amino Cy3, reference compound] | localised in the endosome | No nuclear staining | localised in the endosome | – | – | – | – | pKa [6]: 9.5 |
| Poly(L-lysine-co-Cy3-iso-phthalamide) [PD30] | localised in the nucleus | heavy staining in the nucleus; also recorded: extensive nuclear staining | localised in the nucleus | – | – | – | – | nuclear staining (CHO cells [4]): heavily stained; also recorded: clearly associated with the nucleus |
| poly(lysine iso-phthalamide-co-lysine DOX iso-phthalamide) [polymer-conjugated doxorubicin] | – | – | – | little effect | taken up into cells | little effect | taken up into cells | – |
| NCCCC[C@H](N)C(=O)O [lysine] | – | – | – | – | – | – | – | pKa [9]: about 2.18 |
| COc1cccc2c1C(=O)c1c(O)c3c(c(O)c1C2=O)C[C@@](O)(C(=O)CO)C[C@@H]3O[C@H]1C[C@H](N)[C@H](O)[C@H](C)O1 [doxorubicin, reference compound] | – | – | – | significantly enhances | taken up into cells | significantly enhances | taken up into cells | cytotoxic effect (MCF7 cells [10]; 1% by volume of DMSO): significant cytotoxic effects; cytotoxic effect (MCF7 cells [10]; without DMSO): significant cytotoxic effects; cytotoxic effect (MCF7/MXR cells [11]; 1% by volume of DMSO): significant cytotoxic effects; cytotoxic effect (MCF7/MXR cells [11]; without DMSO): significant cytotoxic effects |

— patent US20060172418A1, “Hypercoiling polymers and their use in cellular delivery” (priority 2002, published 2006)
